Measurements from PubChem BioAssay AID1845200 (Molecular Pharmacology Branch, DTP, NCI, 2023).
Activity calls are given as the source filed them. How the source made its calls: active means viability on the fitted dose curve at most 10% of control; inactive means the rest.

Tested on: ASPS-1 complex tumor spheroids, viability
Experiment: Anticancer human tumor ASPS-1 cell line growth inhibition;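 further: spheroids exposed to agents for 7 days after 3 days of growth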;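 on viability, T/C: 100% = DMSO vehicle treated spheroids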
Conditions: for IC50: curve of first compound; for viability, T/C: stronger effect = lower value
From the text: Multicellular complex tumor spheroid response to DNA repair inhibitors in combination with DNA-damaging drugs
This study explores the anticancer activities of DNA-damaging drugs and inhibitors of DNA damage repair, both as single agents and in combinations. Complex tumor spheroids comprised of malignant cells, endothelial cells and mesenchymal stem cells served as an in vitro model for human solid tumors. This model system incorporates physiologically relevant features and patient-derived or established malignant cell lines with clinically relevant genetic alterations from many tumor types. Twenty-six patient-derived or established malignant cell lines were evaluated representing sarcoma, melanoma, small cell lung cancer (SCLC), non-small cell lung cancer (NSCLC), as well as bladder, ovarian and pancreatic cancers. The concentration ranges selected for each drug and investigational agent were based upon clinically achievable concentrations if the clinical Cmax of the agent was known.
Compounds. The drugs and compounds olaparib (NSC753686), talazoparib (NSC767125), berzosertib (NSC777718), elimusertib (NSC800525), nedisertib (NSC802822), VX-984 (NSC792969), AZD-1390 (NSC803789), temozolomide (NSC362856), topotecan (NSC609699), trabectedin (NSC813783), staurosporine (NSC755774), and gemcitabine (NSC613327) were obtained from the National Cancer Institute (NCI) Developmental Therapeutics Program Chemical Repository. The FDA-approved anticancer drug set is available from the Developmental Therapeutics Program at https://dtp.cancer.gov/organization/dscb/obtaining/available_plates.htm. […] The stock solutions were prepared in dimethyl sulfoxide (DMSO, Sigma-Aldrich, St. Louis, MO, cat. D2650) at 400-fold the tested concentration and stored at -70 degrees C. Prior to their use, the stock solutions were diluted in fresh medium and the final DMSO concentration in the assay was 0.25% (v/v). All drugs and investigational agents were tested over a range starting from a high concentration at or near the clinical Cmax and decreasing in half-log increments. If the clinical Cmax for an agent had not been determined, the highest concentration tested was 10 microM.
Cell Lines. The patient-derived cancer cell (PDC) lines: 156681-154-R-J1-PDC, 283228-195-R-J1-PDC, 287954-098-R-J1-PDC, 292921-168-R-J2-PDC, 349418-098-R-PDC, 425362-245-T-J1-PDC, 556581-035-R-J1-PDC, and BL0293-F563-PDC were received from the NCI Patient-Derived Models Repository (PDMR, https://pdmr.cancer.gov). The established cell lines HS-SY-2 (RRID:CVCL_8719), MPNST, and SYO-1 (RRID:CVCL_7146) were obtained from the Sloan Kettering Institute. The alveolar soft parts sarcoma cell line ASPS-1 (RRID:CVCL_S738) was established at the NCI and grown from internal seed stocks. The following established cell lines were purchased from the American Type Culture Collection (ATCC, Manassas, VA): G-401 (ATCC, cat. CRL-1441, RRID:CVCL_0270), SW982 (ATCC, cat. HTB-93, RRID:CVCL_1734), VA-ES-BJ (ATCC, cat. CRL-2138, RRID:CVCL_1785), NCI-H719 (ATCC, cat. CRL-5837, RRID:CVCL_1582), NCI-H196 (ATCC, cat. CRL-5823, RRID:CVCL_1509), NCI-H841 (ATCC, cat. CRL-5845, RRID:CVCL_1595), NCI-H1618 (ATCC, cat. CRL-5879, RRID:CVCL_1480), NCI-H1876 (ATCC, cat. CRL-5902, RRID:CVCL_1503), DMS 114 (ATCC, cat. CRL-2066; RRID:CVCL_1174), NCI-H211 (ATCC, cat. CRL-5824; RRID:CVCL_1529), and SW 1271 (ATCC, cat. CRL-2177, RRID:CVCL_1716). The small cell lung cancer cell line COR-L88 was purchased from Sigma-Aldrich (cat. 92031917-1VL, RRID:CVCL_1141). The non-small cell lung cancer cell lines NCI-H226 (RRID:CVCL_1544) and NCI-H322M (RRID:CVCL_1557) were established at the NCI and grown from internal seed stocks. Pooled donor human umbilical vein endothelial cells (HUVEC, Lonza, cat. CC-2519) and human mesenchymal stem cells (hMSC, Lonza, cat. PT-2501) were purchased from Lonza (Walkersville, MD).
Cell Culture. All cells were maintained in an incubator at 37 degrees C and 5% CO2 with 95% humidity. […]

COc1cc(C)[nH]c(=O)c1CN1CCc2c(Cl)cc(C(OC)C3COC3)c(Cl)c2C1=O (stereo not given) + Cn1nnc2c(C(N)=O)ncn2c1=O
inactive: viability, T/C (second compound 1 µM, first compound 0.0316 µM) 107% | viability, T/C (second compound 1 µM, first compound 0.1 µM) 104% | viability, T/C (second compound 1 µM, first compound 0.316 µM) 99.2% | viability, T/C (second compound 1 µM, first compound 1 µM) 98.6% | viability, T/C (second compound 1 µM, first compound 3.16 µM) 94.7% | viability, T/C (second compound 1 µM, first compound 10 µM) 96.7% | viability, T/C (second compound 3.16 µM, first compound 0.0316 µM) 103% | viability, T/C (second compound 3.16 µM, first compound 0.1 µM) 101% | viability, T/C (second compound 3.16 µM, first compound 0.316 µM) 103% | viability, T/C (second compound 3.16 µM, first compound 1 µM) 104% | viability, T/C (second compound 3.16 µM, first compound 3.16 µM) 103% | viability, T/C (second compound 3.16 µM, first compound 10 µM) 90.8% | viability, T/C (second compound 10 µM, first compound 0.0316 µM) 75.3% | viability, T/C (second compound 10 µM, first compound 0.1 µM) 83.9% | viability, T/C (second compound 10 µM, first compound 0.316 µM) 94.9% | viability, T/C (second compound 10 µM, first compound 1 µM) 86.8% | viability, T/C (second compound 10 µM, first compound 3.16 µM) 91% | viability, T/C (second compound 10 µM, first compound 10 µM) 81.2% | viability, T/C (second compound 31.6 µM, first compound 0.0316 µM) 80.4% | viability, T/C (second compound 31.6 µM, first compound 0.1 µM) 82.5% | viability, T/C (second compound 31.6 µM, first compound 0.316 µM) 82.5% | viability, T/C (second compound 31.6 µM, first compound 1 µM) 84.1% | viability, T/C (second compound 31.6 µM, first compound 3.16 µM) 82.7% | viability, T/C (second compound 31.6 µM, first compound 10 µM) 75.2% | viability, T/C (second compound 100 µM, first compound 0.0316 µM) 81.8% | viability, T/C (second compound 100 µM, first compound 0.1 µM) 78.6% | viability, T/C (second compound 100 µM, first compound 0.316 µM) 72.9% | viability, T/C (second compound 100 µM, first compound 1 µM) 72.7% | viability, T/C (second compound 100 µM, first compound 3.16 µM) 69% | viability, T/C (second compound 100 µM, first compound 10 µM) 70%
> 10 µM: IC50 (second compound 1 µM) | IC50 (second compound 3.16 µM) | IC50 (second compound 10 µM) | IC50 (second compound 31.6 µM) | IC50 (second compound 100 µM)

O=C(c1cc(Cc2n[nH]c(=O)c3ccccc23)ccc1F)N1CCN(C(=O)C2CC2)CC1 + Cn1nnc2c(C(N)=O)ncn2c1=O
inactive: viability, T/C (second compound 1 µM, first compound 0.0949 µM) 94.4% | viability, T/C (second compound 1 µM, first compound 0.3 µM) 83.3% | viability, T/C (second compound 1 µM, first compound 0.949 µM) 92.6% | viability, T/C (second compound 1 µM, first compound 3 µM) 82.5% | viability, T/C (second compound 1 µM, first compound 9.49 µM) 95.6% | viability, T/C (second compound 1 µM, first compound 30 µM) 79.2% | viability, T/C (second compound 3.16 µM, first compound 0.0949 µM) 97.6% | viability, T/C (second compound 3.16 µM, first compound 0.3 µM) 94.2% | viability, T/C (second compound 3.16 µM, first compound 0.949 µM) 115% | viability, T/C (second compound 3.16 µM, first compound 3 µM) 95.6% | outcome (second compound 3.16 µM, first compound 9.49 µM) | viability, T/C (second compound 3.16 µM, first compound 30 µM) 76% | viability, T/C (second compound 10 µM, first compound 0.0949 µM) 85.8% | viability, T/C (second compound 10 µM, first compound 0.3 µM) 82.4% | viability, T/C (second compound 10 µM, first compound 0.949 µM) 82.8% | viability, T/C (second compound 10 µM, first compound 3 µM) 78.1% | viability, T/C (second compound 10 µM, first compound 9.49 µM) 76.7% | viability, T/C (second compound 10 µM, first compound 30 µM) 75.5% | viability, T/C (second compound 31.6 µM, first compound 0.0949 µM) 78.8% | viability, T/C (second compound 31.6 µM, first compound 0.3 µM) 70.5% | viability, T/C (second compound 31.6 µM, first compound 0.949 µM) 81.9% | viability, T/C (second compound 31.6 µM, first compound 3 µM) 72.3% | viability, T/C (second compound 31.6 µM, first compound 9.49 µM) 72.4% | viability, T/C (second compound 31.6 µM, first compound 30 µM) 58.6% | viability, T/C (second compound 100 µM, first compound 0.0949 µM) 68.7% | viability, T/C (second compound 100 µM, first compound 0.3 µM) 61.1% | viability, T/C (second compound 100 µM, first compound 0.949 µM) 51% | viability, T/C (second compound 100 µM, first compound 3 µM) 54.3% | viability, T/C (second compound 100 µM, first compound 9.49 µM) 44.3% | viability, T/C (second compound 100 µM, first compound 30 µM) 49.1%
3.4 µM: IC50 (second compound 100 µM)
> 30 µM: IC50 (second compound 1 µM) | IC50 (second compound 3.16 µM) | IC50 (second compound 10 µM) | IC50 (second compound 31.6 µM)
